PubChem BioAssay (NCI)
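Compound exposure: 48 hours, 5 concentrations, 96-well plates. GI50 marks 50% less growth. TGI marks complete inhibition of growth.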

How the values were obtained:
Experiment in all cases: NCI tumour cell line growth inhibition, 48 h
786-0 renal = test system: 786-0 renal
A498 renal = test system: A498 renal
A549 NSCLC = test system: A549 NSCLC
ACHN renal = test system: ACHN renal
BT-549 breast = test system: BT-549 breast
CAKI-1 renal = test system: CAKI-1 renal
CCRF-CEM leukemia = test system: CCRF-CEM leukemia
COLO 205 colon = test system: COLO 205 colon
DU-145 prostate = test system: DU-145 prostate
HCT-116 colon = test system: HCT-116 colon
HCT-15 colon = test system: HCT-15 colon
HL-60(TB) leukemia = test system: HL-60(TB) leukemia
HOP-62 NSCLC = test system: HOP-62 NSCLC
HS 578T breast = test system: HS 578T breast
HT29 colon = test system: HT29 colon
IGROV1 ovarian = test system: IGROV1 ovarian
K-562 leukemia = test system: K-562 leukemia
KM12 colon = test system: KM12 colon
LOX IMVI melanoma = test system: LOX IMVI melanoma
M14 melanoma = test system: M14 melanoma
MCF7 breast = test system: MCF7 breast
MDA-MB-231 breast = test system: MDA-MB-231 breast
MDA-MB-435 = test system: MDA-MB-435
MOLT-4 leukemia = test system: MOLT-4 leukemia
NCI-H226 lung = test system: NCI-H226 lung

Q: What does the source list for `O=C1C(=O)/C(=C/c2ccccc2)CCCCCC/C1=C/c1ccccc1`?
A: GI50 (786-0 renal): 1.82 µM; TGI (786-0 renal): 3.33 µM; GI50 (A498 renal): 13.7 µM; TGI (A498 renal): 28.4 µM; GI50 (A549 NSCLC): 2.33 µM; TGI (A549 NSCLC): 7.16 µM; GI50 (ACHN renal): 2.57 µM; TGI (ACHN renal): 6.5 µM; GI50 (BT-549 breast): 2.33 µM; TGI (BT-549 breast): 5 µM; GI50 (CAKI-1 renal): 3.11 µM; TGI (CAKI-1 renal): 18.6 µM; GI50 (CCRF-CEM leukemia): 3.05 µM; TGI (CCRF-CEM leukemia): 17.9 µM; GI50 (COLO 205 colon): 10.1 µM; TGI (COLO 205 colon): 32.6 µM; GI50 (DU-145 prostate): 3.73 µM; TGI (DU-145 prostate): 14 µM; GI50 (HCT-116 colon): 1.5 µM; TGI (HCT-116 colon): 2.82 µM; GI50 (HCT-15 colon): 1.68 µM; TGI (HCT-15 colon): 3.24 µM; GI50 (HL-60(TB) leukemia): 2.96 µM; TGI (HL-60(TB) leukemia): 8.87 µM; GI50 (HOP-62 NSCLC): 3.44 µM; TGI (HOP-62 NSCLC): 10.5 µM; GI50 (HS 578T breast): 8.06 µM; TGI (HS 578T breast): > 100 µM; GI50 (HT29 colon): 2.04 µM; TGI (HT29 colon): 3.74 µM; GI50 (IGROV1 ovarian): 2.93 µM; TGI (IGROV1 ovarian): 8.7 µM; GI50 (K-562 leukemia): 2.94 µM; TGI (K-562 leukemia): 8.77 µM; GI50 (KM12 colon): 2.7 µM; TGI (KM12 colon): 6.4 µM; GI50 (LOX IMVI melanoma): 1.82 µM; TGI (LOX IMVI melanoma): 3.53 µM; GI50 (M14 melanoma): 2.29 µM; TGI (M14 melanoma): 5.31 µM; GI50 (MCF7 breast): 3.24 µM; TGI (MCF7 breast): 31.8 µM; GI50 (MDA-MB-231 breast): 2.63 µM; TGI (MDA-MB-231 breast): 6.52 µM; GI50 (MDA-MB-435): 2.21 µM; TGI (MDA-MB-435): 5.05 µM; GI50 (MOLT-4 leukemia): 3.17 µM; TGI (MOLT-4 leukemia): 10.7 µM; GI50 (NCI-H226 lung): 1.76 µM; TGI (NCI-H226 lung): 3.54 µM
